Assay [1] deals with Beet Armyworm (BAW) (Spodoptera exigua). Briefly: Bioassays on Beet Armyworm (BAW), 128-well diet tray assay. Format: in vivo. The note with it: 168 h, 50 μg/cm^2 test compound on artificial diet, second instar larvae, 25° C., five to seven days, average of eight wells, read-out: BAW Rating (% mortality). As for the experimental part: (§1) Certain molecules disclosed in this document were tested against BAW and CEW using procedures described in the following examples. In the reporting of the results, the “BAW & CEW Rating Table” was used (See Table Section).
Bioassays on BAW (Spodoptera exigua)
Bioassays on BAW were conducted using a 128-well diet tray assay. one to five second instar BAW larvae were placed in each well (3 mL) of the diet tray that had been previously filled with 1 mL of artificial diet to which 50 μg/cm^2 of the test compound (dissolved in 50 μL of 90:10 acetone-water mixture) had been applied (to each of eight wells) and then allowed to dry. Trays were covered with a clear self-adhesive cover, and held at 25° C., 14:10 light-dark for five to seven days. Percent mortality was recorded for the larvae in each well; activity in the eight wells was then averaged. The results are indicated in the table entitled “Table 3: Assay Results” (See Table Section).

For assay [2], the system named is Corn Earworm (CEW) (Helicoverpa zea). In words: Bioassays on Corn Earworm (CEW), 128-well diet tray assay. Format: in vivo. Particulars: 168 h, 50 μg/cm^2 test compound on artificial diet, second instar larvae, 25° C., five to seven days, average of eight wells, read-out: CEW Rating (% mortality). On the procedure:
as §1
Bioassays on CEW (Helicoverpa zea)
Bioassays on CEW were conducted using a 128-well diet tray assay. one to five second instar CEW larvae were placed in each well (3 mL) of the diet tray that had been previously filled with 1 mL of artificial diet to which 50 μg/cm^2 of the test compound (dissolved in 50 μL of 90:10 acetone-water mixture) had been applied (to each of eight wells) and then allowed to dry. Trays were covered with a clear self-adhesive cover, and held at 25° C., 14:10 light-dark for five to seven days. Percent mortality was recorded for the larvae in each well; activity in the eight wells was then averaged. The results are indicated in the table entitled “Table 3: Assay Results” (See Table Section).

Experimental findings from patent US9615576B2, “Pesticidal compositions and processes related thereto” (Dow AgroSciences LLC, priority 2011, dated 2017) are described below.

Each structure is given as a SMILES string.

Take `O=C(CNC(=O)c1ccc(/C=C/C(c2cc(Cl)c(F)c(Cl)c2)C(F)(F)F)cc1Br)NCC(F)(F)F` (stereo not shown) [AC79, (E)-2-bromo-4-(3-(3,5-dichloro-4-fluorophenyl)-4,4,4-trifluorobut-1-en-1-yl)-N-(2-oxo-2-((2,2,2-trifluoroethyl)amino)ethyl)benzamide]: the mortality at 50 µg/cm2 in assay [1] and in assay [2] was 50 to 100% in each case.

Take `FC(F)(F)c1cc(/C=C/C(c2cc(Cl)cc(Cl)c2)C(F)(F)F)ccc1-n1cncn1` (stereo not shown) [DC51]: the mortality at 50 µg/cm2 in assay [1] and in assay [2] was 50 to 100% each time.

As for `Cc1cc(/C=C/C(c2cc(Cl)cc(Cl)c2)C(F)(F)F)ccc1C(=O)NC(C)(C)c1ccccn1` (stereo not shown) [AC16], the mortality at 50 µg/cm2 in assay [1] and in assay [2] was 50 to 100% each time.

As for `N#Cc1cc(/C=C/C(c2cc(Cl)cc(C(F)(F)F)c2)C(F)(F)F)ccc1-n1cncn1` (stereo not shown) [DC33], the mortality at 50 µg/cm2 in assay [1] and in assay [2] was 50 to 100% in each case.

In the case of `O=C(NC1CS(=O)(=O)C1)c1ccc(/C=C/C(c2cc(Cl)cc(Cl)c2)C(F)(F)F)cc1F` (stereo not shown) [AC83, (E)-4-(3-(3,5-dichlorophenyl)-4,4,4-trifluorobut-1-en-1-yl)-N-(1,1-dioxidothietan-3-yl)-2-fluorobenzamide], the mortality at 50 µg/cm2 in assay [1] and in assay [2] was 50 to 100% each time.

With `CN(C)NC(=O)CNC(=O)c1ccc(/C=C/C(c2cc(Cl)c(Cl)c(Cl)c2)C(F)(F)F)cc1Br` (stereo not shown) [AC112], the mortality at 50 µg/cm2 in assay [1] and in assay [2] was 50 to 100% throughout.

Take `FC(F)(F)C(/C=C/c1ccc(-n2cncn2)cc1)c1cc(Cl)ccc1Cl` (stereo not shown) [DC15]: the mortality at 50 µg/cm2 in assay [1] and in assay [2] was 0% throughout.

Regarding `O=C(NC1CSC1)c1ccc(/C=C/C(c2cc(Cl)c(Cl)c(Cl)c2)C(F)(F)F)cc1Br` (stereo not shown) [AC32], the mortality at 50 µg/cm2 in assay [1] and in assay [2] was 50 to 100% in each case.

Take `CCNC(=O)NCc1ccc(/C=C/C(c2cc(Cl)c(Cl)c(Cl)c2)C(F)(F)F)c2ccccc12` (stereo not shown) [CC49, (E)-1-ethyl-3-((4-(4,4,4-trifluoro-3-(3,4,5-trichlorophenyl)but-1-en-1-yl)naphthalen-1-yl)methyl)urea]: the mortality at 50 µg/cm2 in assay [1] and in assay [2] was 0% throughout.

Consider `Cc1cc(/C=C/C(c2cc(Cl)cc(Cl)c2)C(F)(F)F)ccc1C(=O)NCc1ccccn1` (stereo not shown) [AC12], for which the mortality at 50 µg/cm2 in assay [1] and in assay [2] was 50 to 100% throughout.

As for `O=C(NCc1ncc(/C=C/C(c2cc(Cl)c(Cl)c(Cl)c2)C(F)(F)F)cc1Cl)C1CC1` (stereo not shown) [CC45], the mortality at 50 µg/cm2 in assay [1] and in assay [2] was 50 to 100% throughout.

As to `Cc1cc(/C=C/C(c2cc(Cl)c(F)c(Cl)c2)C(F)(F)F)ccc1C(=O)NC1CCOCC1` (stereo not shown) [AC52], the mortality at 50 µg/cm2 in assay [1] and in assay [2] was 50 to 100% throughout.

Consider `N#Cc1cc(/C=C/C(c2cc(Cl)c(Cl)c(Cl)c2)C(F)(F)F)ccc1-n1cnc(N(C(=O)C2CC2)C(=O)C2CC2)n1` (stereo not shown) [DC42, (E)-N-(1-(2-cyano-4-(4,4,4-trifluoro-3-(3,4,5-trichlorophenyl)but-1-en-1-yl)phenyl)-1H-1,2,4-triazol-3-yl)-N-(cyclopropanecarbonyl)cyclopropanecarboxamide], for which the mortality at 50 µg/cm2 in assay [1] and in assay [2] was 50 to 100% each time.

For `CS(=O)(=O)CCC(=O)NCc1ccc(/C=C/C(c2cc(Cl)c(Cl)c(Cl)c2)C(F)(F)F)cc1Cl` (stereo not shown) [CC30, (E)-N-(2-chloro-4-(4,4,4-trifluoro-3-(3,4,5-trichlorophenyl)but-1-en-1-yl)benzyl)-3-(methylsulfonyl)propanamide], the mortality at 50 µg/cm2 in assay [1] and in assay [2] was 50 to 100% each time.

For `CCc1cc(/C=C/C(c2cc(Cl)c(F)c(Cl)c2)C(F)(F)F)ccc1C(=O)NC1CS(=O)(=O)C1` (stereo not shown) [AC86], the mortality at 50 µg/cm2 in assay [1] and in assay [2] was 50 to 100% each time.

For `Cc1cc(/C=C/C(c2cc(Cl)cc(Cl)c2)C(F)(F)F)ccc1C(=O)NCc1ccccc1` (stereo not shown) [AC11], the mortality at 50 µg/cm2 in assay [1] and in assay [2] was 50 to 100% throughout.

`O=C(NCc1ccc(/C=C/C(c2cc(Cl)cc(Cl)c2)C(F)(F)F)c2ccccc12)C1CC1` (stereo not shown) [CC47]: the mortality at 50 µg/cm2 in assay [1] and in assay [2] was 0% in each case.

With `N#Cc1cc(/C=C/C(c2cc(Cl)c(Cl)c(Cl)c2)C(F)(F)F)ccc1-n1cncn1` (stereo not shown) [DC31], the mortality at 50 µg/cm2 in assay [1] and in assay [2] was 50 to 100% in each case.

For `Cc1cc(/C=C/C(c2cc(Cl)cc(Cl)c2)C(F)(F)F)ccc1C(=O)NCc1cncnc1` (stereo not shown) [AC39, 4-((E)-3-(3,5-dichlorophenyl)-4,4,4-trifluorobut-1-enyl)-2-methyl-N-((pyrimidin-5-yl)methyl)benzamide], the mortality at 50 µg/cm2 in assay [1] and in assay [2] was 50 to 100% in each case.

`O=C(CC(F)(F)F)NC1CCc2cc(/C=C/C(c3cc(Cl)c(F)c(Cl)c3)C(F)(F)F)ccc21` (stereo not shown) [BC8]: the mortality at 50 µg/cm2 in assay [1] and in assay [2] was 50 to 100% each time.

In the case of `CCc1cc(/C=C/C(c2cc(Cl)c(F)c(Cl)c2)C(F)(F)F)ccc1C(=O)NCC(=O)NCC(F)(F)F` (stereo not shown) [AC80], the mortality at 50 µg/cm2 in assay [1] and in assay [2] was 50 to 100% in each case.

In the case of `Cc1cc(/C=C/C(c2cc(Cl)cc(Cl)c2)C(F)(F)F)ccc1C(=O)NCc1ccoc1` (stereo not shown) [AC20], the mortality at 50 µg/cm2 in assay [1] and in assay [2] was 50 to 100% in each case.

On to `Cc1cc(/C=C/C(c2cc(Cl)c(Cl)c(Cl)c2)C(F)(F)F)ccc1C(=O)NC1CSC1` (stereo not shown) [AC23], for which the mortality at 50 µg/cm2 in assay [1] and in assay [2] was 50 to 100% in each case.

As to `Cc1cc(/C=C/C(c2cc(Cl)cc(Cl)c2)C(F)(F)F)ccc1C(=O)NCC(=O)NC1CC1` (stereo not shown) [AC40], the mortality at 50 µg/cm2 in assay [1] and in assay [2] was 50 to 100% throughout.

As to `Cc1cc(/C=C/C(c2cc(Cl)cc(Cl)c2)C(F)(F)F)ccc1C(=O)NCc1ccccc1F` (stereo not shown) [AC9], the mortality at 50 µg/cm2 in assay [1] and in assay [2] was 50 to 100% in each case.

In the case of `CS(=O)(=O)c1ncnn1-c1ccc(/C=C/C(c2cc(Cl)cc(Cl)c2)C(F)(F)F)cc1` (stereo not shown) [DC27], the mortality at 50 µg/cm2 in assay [1] and in assay [2] was 0% each time.

For `Cc1cc(/C=C/C(c2cc(Cl)cc(Cl)c2)C(F)(F)F)ccc1C(=O)NCC(=O)NC1CSC1` (stereo not shown) [AC41], the mortality (as a rule, the share of the test organisms that died) at 50 µg/cm2 was 50 to 100% in assay [1] and 0% in assay [2].

As for `N#Cc1cc(/C=C/C(c2cc(Cl)c(Cl)c(Cl)c2)C(F)(F)F)ccc1-n1cnc(NC(=O)C2CC2)n1` (stereo not shown) [DC43, (E)-N-(1-(2-cyano-4-(4,4,4-trifluoro-3-(3,4,5-trichlorophenyl)but-1-en-1-yl)phenyl)-1H-1,2,4-triazol-3-yl)cyclopropanecarboxamide], the mortality at 50 µg/cm2 in assay [1] and in assay [2] was 50 to 100% throughout.

Take `O=C(CNC(=O)c1ccc(/C=C/C(c2ccc(F)c(Cl)c2)C(F)(F)F)cc1Br)NCC(F)(F)F` (stereo not shown) [AC99]: the mortality at 50 µg/cm2 in assay [1] and in assay [2] was 50 to 100% each time.

For the compound `Cc1cc(/C=C/C(c2cc(Cl)cc(Cl)c2)C(F)(F)F)ccc1C(=O)Nc1ccc(Cl)nc1` (stereo not shown) [AC59], the mortality at 50 µg/cm2 in assay [1] and in assay [2] was 50 to 100% in each case.

Consider `Cc1cc(/C=C/C(c2cc(Cl)cc(Cl)c2)C(F)(F)F)ccc1C(=O)NCC(=O)NC1CS(=O)(=O)C1` (stereo not shown) [AC81], for which the mortality at 50 µg/cm2 was 50 to 100% in assay [1] and 0% in assay [2].

For `O=C(CC(F)(F)F)NCc1ccc(/C=C/C(c2cc(Cl)c(Cl)c(Cl)c2)C(F)(F)F)cc1Br` (stereo not shown) [CC25], the mortality at 50 µg/cm2 in assay [1] and in assay [2] was 50 to 100% each time.

Consider `Cc1cc(/C=C/C(c2cc(Cl)cc(Cl)c2)C(F)(F)F)ccc1C(=O)NCc1ccc(Cl)cc1` (stereo not shown) [AC48], for which the mortality at 50 µg/cm2 in assay [1] and in assay [2] was 50 to 100% in each case.

Regarding `O=C(NC1CCNCC1)c1ccc(/C=C/C(c2cc(Cl)c(Cl)c(Cl)c2)C(F)(F)F)cc1Br` (stereo not shown) [AC114, (E)-2-bromo-N-(piperidin-4-yl)-4-(4,4,4-trifluoro-3-(3,4,5-trichlorophenyl)but-1-en-1-yl)benzamide], the mortality at 50 µg/cm2 in assay [1] was 50 to 100%; in assay [2], 0 to 50%.

On to `Cc1cc(/C=C/C(c2cc(Cl)cc(Cl)c2)C(F)(F)F)ccc1C(=O)NCc1nccn1C` (stereo not shown) [AC50], for which the mortality at 50 µg/cm2 in assay [1] was 50 to 100%; in assay [2], 0%.

For the compound `CNC(=O)c1ccc(/C=C/C(c2cc(Cl)cc(Cl)c2)C(F)(F)F)cc1` (stereo not shown) [AC1], the mortality at 50 µg/cm2 in assay [1] and in assay [2] was 0% each time.

For the compound `COC(/C=C/c1ccc(-n2cncn2)cc1)(c1cc(Cl)cc(Cl)c1)C(F)(F)F` (stereo not shown) [DC70, (E)-1-(4-(3-(3,5-dichlorophenyl)-4,4,4-trifluoro-3-methoxybut-1-en-1-yl)phenyl)-1H-1,2,4-triazole], the mortality at 50 µg/cm2 in assay [1] and in assay [2] was 50 to 100% in each case.

`Cc1cc(/C=C/C(c2cc(Cl)cc(Cl)c2)C(F)(F)F)ccc1C(=O)NCc1cnc(Cl)s1` (stereo not shown) [AC15]: the mortality at 50 µg/cm2 in assay [1] and in assay [2] was 50 to 100% each time.
